# System: Plasmodium berghei
# Assay: Luciferase/luciferin-expressing antifolate-resistant parasites were used to infect a culture of HepG2 cells that were pre-incubated with compounds. Infected hepatocytes emit light due to the luciferase reaction. Assay results are presented as the percent inhibition of light emission compared to control. […]
# Format: functional
# Conditions: sporozoite; for IC90: read-out: LUCIFERASE INFECTION ASSAY - IC90
smiles,measurement,setting,value
Clc1ccccc1/C=C/c1nc(-c2ccccn2)no1,IC50,"FFLUC_HILL_SLOPE 3.15, FFLUC_R_SQUARED 0.695, PBLUC_HILL_SLOPE 0.408, PBLUC_R_SQUARED 0.784, read-out: LUCIFERASE INFECTION ASSAY - IC50",0.446 µM
same,IC90,,> 11.6 µM
Cc1cc(C)c(C(=O)CSc2cc(C)c3cccc(C)c3n2)c(C)c1,IC50,"FFLUC_HILL_SLOPE 3.04, FFLUC_R_SQUARED 0.417, HEPG2TOX_HILL_SLOPE 2.16, HEPG2TOX_R_SQUARED 0.191, read-out: LUCIFERASE INFECTION ASSAY - IC50",> 10 µM
same,IC90,,> 10 µM
O=C(Nc1ccc(-n2cnc3ccccc32)nc1)c1ccc(S(=O)(=O)C(F)F)cc1,IC50,"FFLUC_HILL_SLOPE 3, FFLUC_R_SQUARED 0.28, HEPG2TOX_HILL_SLOPE 9.7, HEPG2TOX_R_SQUARED 0.823, PBLUC_HILL_SLOPE 15.6, 20.0, PBLUC_R_SQUARED 0.113, 0.608, read-out: LUCIFERASE INFECTION ASSAY - IC50",9.13 µM
same,IC90,,> 10 µM
O=C(OCCSc1ccc([N+](=O)[O-])c2nonc12)c1cccc(C(F)(F)F)c1,IC50,"FFLUC_HILL_SLOPE 3.07, FFLUC_R_SQUARED 0.747, HEPG2TOX_HILL_SLOPE 10.3, HEPG2TOX_R_SQUARED 0.666, PBLUC_HILL_SLOPE 2.08, PBLUC_R_SQUARED 0.429, read-out: LUCIFERASE INFECTION ASSAY - IC50",3.94 µM
same,IC90,,> 7.98 µM
CN(C)c1ccc(C(c2ccc(N(C)C)cc2)c2ccc(N(C)C)c(C#N)c2F)cc1,IC50,"FFLUC_HILL_SLOPE 2.97, FFLUC_R_SQUARED 0.397, HEPG2TOX_HILL_SLOPE 0.327, HEPG2TOX_R_SQUARED 0.744, PBLUC_HILL_SLOPE 0.914, PBLUC_R_SQUARED 0.465, read-out: LUCIFERASE INFECTION ASSAY - IC50",6.07 µM
same,IC90,,> 7.92 µM
COc1ccc(-c2csc(NC(=O)c3ccc(Cl)c(S(=O)(=O)N4CCc5ccccc54)c3)n2)cc1OC,IC50,"FFLUC_HILL_SLOPE 2.97, FFLUC_R_SQUARED 0.574, read-out: LUCIFERASE INFECTION ASSAY - IC50",> 10 µM
same,IC90,,> 10 µM
O=C(Nc1nc(-c2cccs2)cs1)c1cc(-c2ccccc2)nn1-c1ccccc1,IC50,"FFLUC_HILL_SLOPE 3.07, FFLUC_R_SQUARED 0.622, PBLUC_HILL_SLOPE 1.11, PBLUC_R_SQUARED 0.202, read-out: LUCIFERASE INFECTION ASSAY - IC50",> 10 µM
same,IC90,,> 10 µM
O=S(=O)(c1ccc(Cl)c(N=C2NN=C(c3c[nH]c4ccccc34)CS2)c1)N1CCOCC1,IC50,"FFLUC_HILL_SLOPE 3.06, FFLUC_R_SQUARED 0.687, HEPG2TOX_HILL_SLOPE 3.66, HEPG2TOX_R_SQUARED 0.952, PBLUC_HILL_SLOPE 1.64, PBLUC_R_SQUARED 0.734, read-out: LUCIFERASE INFECTION ASSAY - IC50",3.83 µM
same,IC90,,> 10 µM
CC(C(=O)NCC1CCCCC1)N1CCN(c2ccc(F)cc2)CC1 (stereo not given),IC50,"FFLUC_HILL_SLOPE 3.15, FFLUC_R_SQUARED 0.597, read-out: LUCIFERASE INFECTION ASSAY - IC50",> 10 µM
same,IC90,,> 10 µM
CC(C)(C)c1ccc(OC(=O)Nc2ccc(Cl)c(Cl)c2)c(C(C)(C)C)c1,IC50,"FFLUC_HILL_SLOPE 3, FFLUC_R_SQUARED 0.639, PBLUC_HILL_SLOPE 0.845, PBLUC_R_SQUARED 0.14, read-out: LUCIFERASE INFECTION ASSAY - IC50",> 8.37 µM
same,IC90,,> 8.37 µM
N#C/C(=C\c1ccc([N+](=O)[O-])s1)C(N)=S,IC50,"FFLUC_HILL_SLOPE 3.11, FFLUC_R_SQUARED 0.767, read-out: LUCIFERASE INFECTION ASSAY - IC50",> 13.8 µM
same,IC90,,> 13.8 µM
O=[N+]([O-])c1cc(Cl)cc(/C=N/Nc2cc(C(F)(F)F)ccc2Cl)c1O,IC50,"FFLUC_HILL_SLOPE 3.01, FFLUC_R_SQUARED 0.379, HEPG2TOX_HILL_SLOPE 2.46, HEPG2TOX_R_SQUARED 0.824, read-out: LUCIFERASE INFECTION ASSAY - IC50",> 10 µM
same,IC90,,> 10 µM
Cc1cc2c(cc1C)CSC(c1ccccc1OC(=O)c1cccc3ccccc13)SC2,IC50,"FFLUC_HILL_SLOPE 3.12, FFLUC_R_SQUARED 0.597, read-out: LUCIFERASE INFECTION ASSAY - IC50",> 10 µM
same,IC90,,> 10 µM
Cc1nn(-c2ccccc2)c2c1C(c1cccnc1)C(c1nc3ccccc3s1)C(c1ccccc1)=N2 (stereo not given),IC50,"FFLUC_HILL_SLOPE 3.11, FFLUC_R_SQUARED 0.548, read-out: LUCIFERASE INFECTION ASSAY - IC50",> 10 µM
same,IC90,,> 10 µM
Cc1cc(C(=O)C(C)Sc2ncnc3sc(-c4ccccc4)cc23)c(C)n1-c1ccc(OC(F)F)cc1 (stereo not given),IC50,"FFLUC_HILL_SLOPE 3.01, FFLUC_R_SQUARED 0.199, HEPG2TOX_HILL_SLOPE 3.15, HEPG2TOX_R_SQUARED 0.925, PBLUC_HILL_SLOPE 3.1, PBLUC_R_SQUARED 0.165, read-out: LUCIFERASE INFECTION ASSAY - IC50",7.04 µM
same,IC90,,> 10 µM
CCOC(=O)c1cc(NC(=O)c2ccc(Cl)c(S(=O)(=O)N(Cc3ccccc3)c3ccccc3OC)c2)cc(C(=O)OCC)c1,IC50,"FFLUC_HILL_SLOPE 3.02, FFLUC_R_SQUARED 0.375, read-out: LUCIFERASE INFECTION ASSAY - IC50",> 10 µM
same,IC90,,> 10 µM
O=c1[nH]nc(Sc2ncc([N+](=O)[O-])s2)n1Cc1ccccc1,IC50,"FFLUC_HILL_SLOPE 3.03, FFLUC_R_SQUARED 0.344, HEPG2TOX_HILL_SLOPE 12.4, HEPG2TOX_R_SQUARED 0.571, PBLUC_HILL_SLOPE 13, PBLUC_R_SQUARED 0.0851, read-out: LUCIFERASE INFECTION ASSAY - IC50",8.7 µM
same,IC90,,> 9.84 µM
Cc1ccc2nc(NC(=O)c3cccc(F)c3)c(C(=O)NCC(C)C)n2c1,IC50,"FFLUC_HILL_SLOPE 3.07, FFLUC_R_SQUARED 0.833, HEPG2TOX_HILL_SLOPE 1.43, HEPG2TOX_R_SQUARED 0.94, PBLUC_HILL_SLOPE 3.56, PBLUC_R_SQUARED 0.485, read-out: LUCIFERASE INFECTION ASSAY - IC50",1.69 µM
same,IC90,,3.14 µM
c1ccc(-c2cc3c(Oc4cccc5ccccc45)ncnc3s2)cc1,IC50,"FFLUC_HILL_SLOPE 2.93, FFLUC_R_SQUARED 0.065, PBLUC_HILL_SLOPE 1.19, PBLUC_R_SQUARED 0.417, read-out: LUCIFERASE INFECTION ASSAY - IC50",2.85 µM
same,IC90,,> 10 µM
NNc1nc(C(F)(F)F)nc2c1cnn2Cc1ccccc1,IC50,"FFLUC_HILL_SLOPE 3.09, FFLUC_R_SQUARED 0.0505, read-out: LUCIFERASE INFECTION ASSAY - IC50",> 10 µM
same,IC90,,> 10 µM
CC(=O)c1ccc(NC(=O)N2[C@@H]3CC[C@@H](C3)[C@H]2c2nc3cccc(OCc4ccccc4)c3[nH]2)cc1,IC50,"FFLUC_HILL_SLOPE 3.04, FFLUC_R_SQUARED 0.885, read-out: LUCIFERASE INFECTION ASSAY - IC50",> 10 µM
same,IC90,,> 10 µM
FC(F)(F)c1nnc2ccc(NC(c3ccccc3)c3cc4ccccc4o3)nn12 (stereo not given),IC50,"FFLUC_HILL_SLOPE 3.11, FFLUC_R_SQUARED 0.599, PBLUC_HILL_SLOPE 15.6, PBLUC_R_SQUARED 0.326, read-out: LUCIFERASE INFECTION ASSAY - IC50",3.65 µM
same,IC90,,4.2 µM
Cc1ccc(N2C(=O)c3ccccc3C(C=NNc3ccc(S(=O)(=O)N4CCCC4)cc3[N+](=O)[O-])C2=O)cc1 (stereo not given),IC50,"FFLUC_HILL_SLOPE 3.06, FFLUC_R_SQUARED 0.613, HEPG2TOX_HILL_SLOPE 13, HEPG2TOX_R_SQUARED 0.977, read-out: LUCIFERASE INFECTION ASSAY - IC50",> 10 µM
same,IC90,,> 10 µM
CC(C)c1cc(N(c2ccc(Br)cc2)S(=O)(=O)c2ccc(Cl)cc2)cc(C(C)C)c1O,IC50,"FFLUC_HILL_SLOPE 3.1, FFLUC_R_SQUARED 0.697, PBLUC_HILL_SLOPE 9.64, PBLUC_R_SQUARED 0.214, read-out: LUCIFERASE INFECTION ASSAY - IC50",8.66 µM
same,IC90,,> 10 µM
CC(=O)Nc1ccc(Sc2ccnc3cc(Cl)ccc23)cc1,IC50,"FFLUC_HILL_SLOPE 2.92, FFLUC_R_SQUARED 0.4, PBLUC_HILL_SLOPE 11.7, PBLUC_R_SQUARED 0.574, read-out: LUCIFERASE INFECTION ASSAY - IC50",3.29 µM
same,IC90,,3.98 µM
CCc1cccc2c(C(=O)COC(=O)C3CCN(S(=O)(=O)c4ccc(Cl)c(C(F)(F)F)c4)CC3)c[nH]c12,IC50,"FFLUC_HILL_SLOPE 3.04, FFLUC_R_SQUARED 0.433, read-out: LUCIFERASE INFECTION ASSAY - IC50",> 10 µM
same,IC90,,> 10 µM
CN(C)c1c(/C=C2\C(=O)Nc3ccccc32)cc(/C=C2/C(=O)Nc3ccccc32)c(N(C)C)c1C#N,IC50,"FFLUC_HILL_SLOPE 3.06, FFLUC_R_SQUARED 0.454, HEPG2TOX_HILL_SLOPE 1.28, HEPG2TOX_R_SQUARED 0.858, PBLUC_HILL_SLOPE 2.4, PBLUC_R_SQUARED 0.768, read-out: LUCIFERASE INFECTION ASSAY - IC50",1.65 µM
same,IC90,,4.13 µM
Cc1ccc(-n2c(SCC(=O)N3c4ccc(S(N)(=O)=O)cc4CC3C)nc3ccccc32)cc1 (stereo not given),IC50,"FFLUC_HILL_SLOPE 2.97, FFLUC_R_SQUARED 0.377, PBLUC_HILL_SLOPE 1.55, PBLUC_R_SQUARED 0.53, read-out: LUCIFERASE INFECTION ASSAY - IC50",5.31 µM
same,IC90,,> 10 µM
Cc1cccc(C)c1-n1c(=C(C#N)C#N)s/c(=C/c2ccc(Cl)c([N+](=O)[O-])c2)c1=O,IC50,"FFLUC_HILL_SLOPE 2.98, FFLUC_R_SQUARED 0.465, HEPG2TOX_HILL_SLOPE 7.11, HEPG2TOX_R_SQUARED 0.701, PBLUC_HILL_SLOPE 34, PBLUC_R_SQUARED 0.394, read-out: LUCIFERASE INFECTION ASSAY - IC50",9.19 µM
same,IC90,,9.8 µM
COc1ccc([N+](=O)[O-])cc1C(=O)Nc1nc2c(s1)CCCCC2,IC50,"FFLUC_HILL_SLOPE 3.14, FFLUC_R_SQUARED 0.813, PBLUC_HILL_SLOPE 0.763, PBLUC_R_SQUARED 0.879, read-out: LUCIFERASE INFECTION ASSAY - IC50",0.0231 µM
same,IC90,,0.411 µM
